# Source: patent US20240201169A1, “METHODS OF THREE-DIMENSIONAL TUMOR SPHEROID MICROARRAY FOR HIGH-THROUGHPUT, HIGH-CONTENT IMMUNE CELL-MEDIATED CYTOTOXICITY” (RENSSELAER POLYTECHNIC INSTITUTE, priority 2021, published 2024)
# Experiments:
# [1] = tested on: MCF7 spheroids; assay type: cell-based; details: for target cell cytotoxicity of combination: combination of NK92-CD16 at E:T 10:1, Trastuzumab and drug (3.5 nM doxorubicin, p<0.01; 7.0 nM paclitaxel, p<0.05)
# Procedure: (§1) High-content imaging of 3D tumor spheroid micropillar array for effector cell-mediated cytotoxicity including NK ADCC/drug combination. Uniform-sized 3D spheroids in the 330-micropillar array were used to perform high-throughput ADCC on three different cancer cell lines; MiaPaCa-2, MCF7 and MDA-MB-231, the latter a triple negative breast cancer cell line, in the presence and absence of two chemotherapeutic drugs, doxorubicin and paclitaxel. The ADCC screen was performed by spotting 250 nL onto polydopamine-coated micropillars including 2500 target cancer cells per spot. The cells were cultured for 3 days and then treated with NK92-CD16 cells. […] As a control, one block of spots was reserved for exposure of target cells with both antibody and the drugs but without NK92-CD16 cells. The micropillar/microwell sandwich platform was incubated for 24 h upside-down to allow for target cell killing on culture day 3. The next day, the chips were then washed, stained with Hoechst 33342, Calcein-AM and Propidium Iodide, and imaged using the ASFA™ scanner.
# (§2) There was interest in whether MDA-MB-231, which is a triple negative breast cancer cell line having reduced expression of estrogen receptor (ER), progesterone receptor and HER252, was susceptible to cell death upon combination exposure of paclitaxel, Atezolizumab and NK92-CD16 cells. Triple negative breast cancers are particularly aggressive to treat due to very low expression levels of ER, PR and HER253. To test this, the three target cancer cell lines were spotted onto the 330-micropillar platform to generate the corresponding 3D spheroids. […] The 3D spheroids on the micropillar chip were incubated for 24 h, and then stained and imaged.
# 3D experiments on 330-micropillar/microwell sandwich system. Polystyrene 330 micropillar chips (MBD Korea Co., South Korea) were coated with polydopamine, washed and dried until further use. The 330 well chips were UV-treated using a 96 W transilluminator (Syngene GVM-30) for 4 h to enhance surface hydrophilicity. Cancer cells were detached as described previously and mixed with high concentration growth factor-reduced Matrigel to obtain a final cell concentration of 1×10^7 cells/mL. Then, 250 nL of the Matrigel-cell mixture was spotted using the ASFA™ spotter onto the polydopamine coated 330 micropillar chips. […]
# (§3) Similarly, for the dose response experiments with paclitaxel, where the E:T ratio was fixed at 5:1, 25 different conditions including a dead cell control were evaluated, as shown in Table 2.
# (§4) Unconjugated anti-HER2 antibody was used for experiments on 330 micropillar/microwell chips. […] The chips were subsequently washed in DPBS and imaged using an ASFA™ Cell Scanner (MBD Korea Co., South Korea) and quantitatively analyzed using cell analyzer software within the imaging system. […]
# [2] = tested on: MDA-MB-231 spheroids; assay: 3D tumor spheroid 330-micropillar/microwell cytotoxicity (NK ADCC/drug combination, paclitaxel dose response); assay type: cell-based; details: for target cell cytotoxicity of combination: combination of NK92-CD16 at E:T 10:1, Trastuzumab and drug (3.5 nM doxorubicin, p<0.01; 7.0 nM paclitaxel, p<0.05)
# Procedure: as §1, §2
# 3D experiments on 330-micropillar/microwell sandwich system. Polystyrene 330 micropillar chips (MBD Korea Co., South Korea) were coated with polydopamine, washed and dried until further use. The 330 well chips were UV-treated using a 96 W transilluminator (Syngene GVM-30) for 4 h to enhance surface hydrophilicity. Cancer cells were detached as described previously and mixed with high concentration growth factor-reduced Matrigel to obtain a final cell concentration of 1×10^7 cells/mL. Then, 250 nL of the Matrigel-cell mixture was spotted using the ASFA™ spotter onto the polydopamine coated 330 micropillar chips. The chips were incubated face down in a humidity chamber at 37° C. for 15 min to allow for gelation and then they were sandwiched with the corresponding 330 microwell chip including 3.6 μL of fresh medium per well. The chips were cultured for a period of 3 days prior to NK cell exposure. The cell growth medium on the chip was exchanged every 2 days. For cytotoxicity experiments, where the NK92-CD16 ratio was varied, 25 different conditions were tested (see Table 1 below), including a dead control (via addition of saponin).
# as §3
# as §4, with “chips. […] The micropillar chip with target cells was then stamped onto the 330 microwell chip and incubated upside down for 24 h.” for “chips.”
# [3] = tested on: three target cancer cell lines (3D spheroids); assay: cells; details: 24 h, read-out: EC50 (paclitaxel-induced cytotoxicity)
# Excerpt: as §2
# 3D experiments on 330-micropillar/microwell sandwich system. Polystyrene 330 micropillar chips (MBD Korea Co., South Korea) were coated with polydopamine, washed and dried until further use. […]
# as §3, §4
# [4] = tested on: MiaPaCa-2 spheroids; details: antibody 2.5 μg/mL with NK92-CD16 (5:1) and paclitaxel dose range, 24 h
# Procedure: as §1, with “The next day, the chips were then washed, stained with Hoechst 33342, Calcein-AM and Propidium Iodide, and imaged using the ASFA™ scanner.” left out
# as §3, §4
# [5] = paclitaxel alone, spheroid culture
Compound,target cell cytotoxicity of combination ([1]; 24 h),target cell cytotoxicity of combination ([2]; 24 h),"effectiveness as a cytotoxic agent [1, 5]","fold lower EC50 value for paclitaxel ([1]; paclitaxel with Trastuzumab 2.5 μg/mL and NK92-CD16 (5:1) vs absence of antibody and effector cells, 24 h)","effectiveness as a cytotoxic agent [2, 5]","fold lower EC50 value for paclitaxel ([2]; paclitaxel in the presence of Atezolizumab 2.5 μg/mL along with NK92-CD16 (5:1), 24 h)","cytotoxic effectiveness of condition ([2]; paclitaxel in the presence of both Trastuzumab 2.5 μg/mL and NK92-CD16 (5:1), 24 h)",EC50 [3],inducing cytotoxicity [4]
COc1cccc2c1C(=O)c1c(O)c3c(c(O)c1C2=O)C[C@@](O)(C(=O)CO)C[C@@H]3O[C@H]1C[C@H](N)[C@H](O)[C@H](C)O1 [doxorubicin],significantly more effective,significantly more effective,–,–,–,–,–,–,–
CC(=O)O[C@H]1C(=O)[C@@]2(C)[C@H]([C@H](OC(=O)c3ccccc3)[C@]3(O)C[C@H](OC(=O)[C@H](O)[C@@H](NC(=O)c4ccccc4)c4ccccc4)C(C)=C1C3(C)C)[C@]1(OC(C)=O)CO[C@@H]1C[C@@H]2O [paclitaxel],significantly more effective,significantly more effective,poorly effective,approximately 1.8 fold,poorly effective,approximately 43 fold,did not prove to be effective,> 500 µM,–
Atezolizumab,–,–,–,–,–,–,–,–,effective in inducing cytotoxicity
